Experimental data reported in the supplement of paper PMC4862054.

Columns and labels:
Conditions in all cases: incubation time: 72 h
[1] = test system: MDA-MB-436; assay: drug sensitivity score (DSS), CellTiter-Glo (DSS (AUC-based score)); higher = stronger drug effect (viability inhibition or cytotoxicity); extreme values may be limits of the assay
Procedure, shortened: (§1)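 Compound was dispensed into 384-well plates at 5 concentrations in 10-fold steps spanning a 10,000-fold range chosen for each compound, and 20 µl of breast cancer cell suspension was added before 72 h of incubation. CellTox Green fluorescence was read at 485/520 nm, followed by CellTiter-Glo luminescence after 10 min at room temperature. Values on each plate were normalised to 0.1 % DMSO and a positive kill control. The drug sensitivity score came from the area under the fitted dose-response curve.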

[2] = test system: BT-549; assay: as above
Procedure, shortened: as §1

[3] = test system: HDQ-P1; assay: as above
Procedure, shortened: as §1

[4] = test system: Hs578T; assay: as above
Procedure, shortened: as §1

[5] = test system: CAL-85-1; assay: as above
Procedure, shortened: as §1

[6] = test system: MDA-MB-453; assay: as above
Procedure, shortened: as §1

[7] = test system: HCC1143; assay: as above
Procedure, shortened: as §1

[8] = test system: MDA-MB-468; assay: as above
Procedure, shortened: as §1

[9] = test system: CAL-120; assay: as above
Procedure, shortened: as §1

[10] = test system: MFM-223; assay: as above
Procedure, shortened: as §1

[11] = test system: HCC1937; assay: as above
Procedure, shortened: as §1

[12] = test system: HCC1599; assay: as above
Procedure, shortened: as §1

[13] = test system: CAL-148; assay: as above
Procedure, shortened: as §1

[14] = test system: MCF-10A; assay: as above
Procedure, shortened: as §1

[15] = test system: MDA-MB-231; assay: as above
Procedure, shortened: as §1

[16] = test system: BT-549; assay: normalised viability (% of control), CellTiter-Blue; higher = more viable cells (about 100 = DMSO control)
Procedure, shortened: (§2)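 Vehicle (100) and a positive kill control (0) anchored the normalisation of each plate, and Z'-factor was used for quality control. Breast cancer cell lines in 20 µl suspension were incubated 72 h over compound in 5 µl medium in 384-well plates, followed by CellTiter-Blue at 560/590 nm. The value is normalised viability at a single listed concentration of the series.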

[17] = test system: CAL-85-1; assay: as above
Procedure, shortened: as §2

[18] = test system: MDA-MB-453; assay: as above
Procedure, shortened: as §2

[19] = test system: SK-BR-3; assay: as above
Procedure, shortened: as §2

[20] = test system: CAL-51; assay: as above
Procedure, shortened: as §2

[21] = test system: MDA-MB-468; assay: as above
Procedure, shortened: as §2

[22] = test system: MFM-223; assay: as above
Procedure, shortened: as §2

[23] = test system: BT-474; assay: as above
Procedure, shortened: as §2

[24] = test system: CAL-148; assay: as above
Procedure, shortened: as §2

[25] = test system: MDA-MB-231; assay: as above
Procedure, shortened: as §2

CC(C)(C)NC(=O)[C@H]1CC[C@H]2[C@@H]3CC[C@H]4NC(=O)C=C[C@]4(C)[C@H]3CC[C@]12C [Finasteride]
Conditions	drug sensitivity score
[1]	0
[2]	0
[3]	0
[4]	0
[5]	0
[6]	0
[7]	0
[8]	0
[9]	0
[10]	0
[11]	0
[12]	0
[13]	0
[14]	0
[15]	0

normalised viability [%]
Conditions	[16]	[17]	[18]	[19]	[20]	[21]	[22]	[23]	[24]	[25]
3 nM	–	100	117	–	112	–	–	–	95.1	–
10 nM	89.8	–	–	110	–	106	106	125	–	98.2
30 nM	–	91.7	98.2	–	108	–	–	–	96.8	–
100 nM	–	100	112	–	103	–	–	–	102	–
1000 nM	99	–	–	107	–	99.2	97.7	111	–	98.5
10000 nM	98.5	–	–	102	–	121	41.8	125	–	122

Nc1ccn([C@@H]2O[C@H](CO)[C@@H](O)C2(F)F)c(=O)n1 [Gemcitabine]
Conditions	drug sensitivity score
[1]	16.8
[2]	14.7
[3]	1.57
[4]	4.8
[5]	12.4
[6]	4.36
[7]	14.5
[8]	19.7
[9]	3.04
[10]	0
[11]	0
[12]	12.8
[13]	10.6
[14]	5.69
[15]	0

normalised viability [%]
Conditions	[16]	[17]	[18]	[19]	[20]	[21]	[22]	[23]	[24]	[25]
0.3 nM	–	96.6	114	–	102	–	–	–	102	–
1 nM	92.8	–	–	108	–	104	99.7	119	–	97.9
3 nM	–	85.1	91.7	–	98	–	–	–	92.1	–
10 nM	–	85.3	97.9	–	83.2	–	–	–	65.2	–
100 nM	69.9	–	–	47	–	35.5	95.6	103	–	72.1
1000 nM	61	–	–	40.9	–	24.6	34.9	101	–	72.2
